Source: PubChem BioAssay (NCI)
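Growth conditions: 96-well plates. Treatment: test compound, 48 hours, 5 concentrations. Analysis: linear interpolation between bracketing concentrations; unreached endpoints set to highest concentration. At the TGI there is no net growth.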

How the values were obtained:
Assay in all cases: NCI anticancer screen, dose series, 48 h
[1] = system: SK-MEL-2 melanoma
[2] = system: BT-549 breast
[3] = system: HOP-92 NSCLC
[4] = system: U251 CNS
[5] = system: TK-10 renal
[6] = system: T-47D breast
[7] = system: SF-539 CNS
[8] = system: SK-MEL-5 melanoma
[9] = system: HCT-116 colon
[10] = system: SNB-19 CNS
[11] = system: HL-60(TB) leukemia
[12] = system: MCF7 breast
[13] = system: MOLT-4 leukemia
[14] = system: NCI-H522 lung
[15] = system: DU-145 prostate
[16] = system: HT29 colon
[17] = system: OVCAR-8 ovarian
[18] = system: A498 renal
[19] = system: OVCAR-4 ovarian
[20] = system: COLO 205 colon
[21] = system: MDA-MB-231 breast
[22] = system: HOP-62 NSCLC
[23] = system: SK-OV-3 ovarian
[24] = system: HCC-2998 colon
[25] = system: PC-3 prostate
[26] = system: SW-620 colon
[27] = system: ACHN renal
[28] = system: LOX IMVI melanoma
[29] = system: NCI-H460 lung
[30] = system: SNB-75 CNS
[31] = system: NCI-H23 lung
[32] = system: UACC-62 melanoma
[33] = system: SF-268 CNS
[34] = system: HS 578T breast
[35] = system: 786-0 renal
[36] = system: OVCAR-5 ovarian
[37] = system: RXF 393 renal
[38] = system: M14 melanoma
[39] = system: SN12C renal
[40] = system: MALME-3M melanoma
[41] = system: NCI/ADR-RES ovarian
[42] = system: HCT-15 colon
[43] = system: MDA-MB-435
[44] = system: SK-MEL-28 melanoma
[45] = system: EKVX NSCLC
[46] = system: K-562 leukemia
[47] = system: NCI-H226 lung
[48] = system: A549 NSCLC
[49] = system: UO-31 renal
[50] = system: UACC-257 melanoma

## CCCCC(CCCC)=NNC(=S)SC
[1]
  TGI: > 100 µM
[2]
  TGI: > 100 µM
[3]
  TGI: > 100 µM
[4]
  TGI: > 100 µM
[5]
  TGI: 69.1 µM
[6]
  TGI: 74.1 µM
[7]
  TGI: 67 µM
[8]
  TGI: 39.3 µM
[9]
  TGI: 38.6 µM
[10]
  TGI: > 100 µM
[11]
  TGI: 50.2 µM
[12]
  TGI: > 100 µM
[13]
  TGI: 43.6 µM
[14]
  TGI: 48.8 µM
[15]
  TGI: > 100 µM
[16]
  TGI: > 100 µM
[17]
  TGI: 44.4 µM
[18]
  TGI: > 100 µM
[19]
  TGI: 66.3 µM
[20]
  TGI: > 100 µM
[21]
  TGI: > 100 µM
[22]
  TGI: > 100 µM
[23]
  TGI: > 100 µM
[24]
  TGI: 54.4 µM
[25]
  TGI: > 100 µM
[26]
  TGI: > 100 µM
[27]
  TGI: > 100 µM
[28]
  TGI: > 100 µM
[29]
  TGI: > 100 µM
[30]
  TGI: > 100 µM
[31]
  TGI: > 100 µM
[32]
  TGI: 57.8 µM
[33]
  TGI: > 100 µM
[34]
  TGI: > 100 µM
[35]
  TGI: > 100 µM
[36]
  TGI: > 100 µM
[37]
  TGI: > 100 µM
[38]
  TGI: 44.3 µM
[39]
  TGI: > 100 µM
[40]
  TGI: 37.4 µM
[41]
  TGI: > 100 µM
[42]
  TGI: > 100 µM
[43]
  TGI: 47 µM
[44]
  TGI: > 100 µM
[45]
  TGI: > 100 µM
[46]
  TGI: > 100 µM
[47]
  TGI: 57.6 µM
[48]
  TGI: > 100 µM
[49]
  TGI: > 100 µM
[50]
  TGI: 75.7 µM
